Data: US5624911A, “Ether derivatives of pseudopterosin” (The Regents of the University of California, priority 1995, dated 1997)
Where two headings read alike, the source gives them in different places.

B1: IL-1-α: Recombinant Human Interleukin-1-α was obtained from R&D Systems, Minneapolis, Minn. (protein, UniProt P01583 113-271, looked up)
Interleukin-1 alpha: SAPFSFLSNVKYNFMRIIKYEFILNDALNQSIIRANDQYLTAAALHNLDEAVKFDMGAYKSSKDDAKITVILRISKTQLYVTAQDEDQPVLLKEMPEIPKTITGSETNLLFFWETHGTKNYFTSVAHPNLFIATKQDYWVCLAGGPPSITDFQILENQA
B2: human plasminogen: Plasminogen (from human plasma) was obtained from Athens Research and Technology, Athens, Ga. (protein, UniProt P00747 20-810, looked up)
Plasminogen: EPLDDYVNTQGASLFSVTKKQLGAGSIEECAAKCEEDEEFTCRAFQYHSKEQQCVIMAENRKSSIIIRMRDVVLFEKKVYLSECKTGNGKNYRGTMSKTKNGITCQKWSSTSPHRPRFSPATHPSEGLEENYCRNPDNDPQGPWCYTTDPEKRYDYCDILECEEECMHCSGENYDGKISKTMSGLECQAWDSQSPHAHGYIPSKFPNKNLKKNYCRNPDRELRPWCFTTDPNKRWELCDIPRCTTPPPSSGPTYQCLKGTGENYRGNVAVTVSGHTCQHWSAQTPHTHNRTPENFPCKNLDENYCRNPDGKRAPWCHTTNSQVRWEYCKIPSCDSSPVSTEQLAPTAPPELTPVVQDCYHGDGQSYRGTSSTTTTGKKCQSWSSMTPHRHQKTPENYPNAGLTMNYCRNPDADKGPWCFTTDPSVRWEYCNLKKCSGTEASVVAPPPVVLLPDVETPSEEDCMFGNGKGYRGKRATTVTGTPCQDWAAQEPHRHSIFTPETNPRAGLEKNYCRNPDGDVGGPWCYTTNPRKLYDYCDVPQCAAPSFDCGKPQVEPKKCPGRVVGGCVAHPHSWPWQVSLRTRFGMHFCGGTLISPEWVLTAAHCLEKSPRPSSYKVILGAHQEVNLEPHVQEIEVSRLFLEPTRKDIALLKLSSPAVITDKVIPACLPSPNYVVADRTECFITGWGETQGTFGAGLLKEAQLPVIENKVCNRYEFLNGRVQSTELCAGHLAGGTDSCQGDSGGPLVCFEKDKYILQGVTSWGLGCARPNKPGVYVRVSRFVTWIEGVMRNN

Tests used:
[1] = tested on: bovine articular cartilage explants; experiment: Inhibition of IL-1-induced Cartilage Degradation in the Presence of Human Plasminogen (35S glycosaminoglycan release); format: cell-based, bovine (calf); settings: for % Inhibition @ 30 μM (Explant) / IC50: plasminogen 0.4 μM plus IL-1 0.5 ng/mL, 96 hours; for IC50: explant
Method: (§1) The ether derivatives were also tested to determine their usefulness in inhibiting degradation of cartilage. Bovine articular cartilage explants labeled with ^35 Sulfate were used to monitor chondrocyte-mediated cartilage degradation in the presence of plasminogen, at concentrations similar to that measured in synovial fluid (0.4 μM), cartilage is extremely sensitive to the effects of IL-1-stimulated degradation. Stimulated chondrocytes produce and activate plasminogen activator (uPA), causing conversion of plasminogen to plasmin. Plasmin is not only an effective activator of the MMP's, but also an effective proteoglycanase. Inhibitors were added to the assay concomitant with the cytokine IL-1, and their effect was monitored by measuring differences in ^35 S glycosaminoglycan release, as compared to appropriate controls.
(§2) Plasminogen (from human plasma) was obtained from Athens Research and Technology, Athens, Ga. Recombinant Human Interleukin-1-α was obtained from R&D Systems, Minneapolis, Minn. DMEM was obtained from Gibco, Grand Island, New York. ^35 S-Sodium Sulfate was obtained from Amersham, Arlington Heights, Ill.
(§3) Bovine (calf) radiocarpal joints were acquired from a local abbatoir immediately after sacrifice and transported on ice. The joints were then washed thoroughly and placed in ice containing approximately 25% Povidine (10% Povidone-lodine topical solution). The joints were then dissected in a sterile hood using good sterile technique. Media (DMEM containing 4.5 g/L D-Glucose and L-Glutamine, without sodium pyruvate) was supplemented with HEPES buffer and sodium bicarbonate, and the pH adjusted to 7.4. The media was further supplemented with penicillin and streptomycin (100 units/mL and 100 μg/ml, respectively) and 50 μg/mL L-ascorbic acid. The cartilage surfaces were exposed, and the synovial fluid was wiped away with sterile gauze. A sterile cork-borer with a diameter of 3.5 millimeters was used to remove uniform plugs of cartilage. Proper orientation was maintained by distinguishing the underlying bony layer in the plugs (only the articulating surface of the cartilage plugs were used in the experiments). The plugs were placed in a sterile flask, washed four times with 50 mL of fresh media, and then placed in an incubator (37 degrees centigrade, with 5% CO2 /95% air, with adequate humidity) and allowed to equilibrate for 1 hour. A 1 mm thick slice of the articulating surface was sliced off of each individual cartilage plug, using a specially designed template to obtain uniform thickness. The cartilage disks were then labeled en mass with ^35 Sulfate at a concentration of approximately 10 μCi/mL for approximately 72-96 hours, with hand-stirring every few hours. Subsequent to labeling, explants were equilibrated with fresh media each 48 hours. The total time for labeling/equilibration was approximately one week from acquisition/dissection of tissue.
(§4) For testing of ether derivatives, individual explants were transferred to 96-well plates containing 250μL of media with or without Plasminogen plus IL-1, and with or without ether derivative. […] All other groups in any assay would contain ether derivative along with concomitant plasminogen plus IL-1. Five samples were routinely used, with concentrations of plasminogen plus IL-1 of 0.4 μM and 0.5 ng/mL, respectively. The assay is allowed to incubate for 96 hours, prior to counting a 50 μL sample of supernatant from each well. A 50 μL sample of a papain digest of each explant is also counted for each respective well. From the counts released into the supernatant over four days, and the total counts present, the data can be expressed as % glycosaminoglycan (GAG) over the four days). The media alone % GAG release values are subtracted from all other values where plasminogen plus IL-1 were present (media alone represents the background for the system). […]

[2] = tested on: edema induced by phorbol 12-myristate 13-acetate (PMA) in ears of mice; experiment: Mouse Ear Edema Assay (PMA-induced edema, topical); format: in vivo; settings: for % Inhibition (of edema relative to PMA control) / Mean Edema (mgs ± SEM): topical, 50 μg/ear with PMA 2 μg/ear, 3 hours 20 minutes; for Mean Edema (mgs ± SEM): PMA controls 17.7 ± 0.6
Method: The pseudopterosin ethers were topically applied in acetone to the inside pinnae of the ears of mice in a solution containing the edema-causing irritant, phorbol 12-myristate 13-acetate (PMA). PMA alone (2 μg/ear) or in combination with 50 μg/ear of test compound was applied to the left ears (5 mice per treatment group) and acetone is applied to all right ears. After 3 hours 20 minutes incubation, the mice were sacrificed, the ears removed, and bores taken and weighed. Edema was measured by subtracting the weight of the right ear (acetone control) from the weight of the left ear (treated). Results were recorded as percent decrease (inhibition) or percent increase (potentiation) in edema relative to the PMA control group edema.

[3] = tested on: bovine articular cartilage explants; experiment: Interleukin-1 mediated cartilage degradation, with or without plasminogen (35S-GAG release); format: cell-based, bovine (calf); settings: for degradation by plasminogen alone (in words): 0.4 μM human plasminogen alone
Method: as §1, §2, §3, §4

Molecule	% Inhibition @ 30 μM (Explant) [1]	IC50 ([1]; Bos taurus, read-out: IC50)	% Inhibition (of edema relative to PMA control) [2]	Mean Edema (mgs ± SEM) [2]	further results
CC(C)=C[C@H]1C[C@H](C)[C@H]2CC[C@H](C)c3c(O[C@@H]4OC[C@@H](O)[C@H](O)[C@H]4O)c(OCc4ccccc4)c(C)c1c32 [WF 332, Pseudopterosin A Benzyl ether]	57%	26 µM	68.3%	5.6 ± 1.0 mgs	
CCCCCOc1c(C)c2c3c(c1O[C@@H]1OC[C@@H](O)[C@H](O)[C@H]1O)[C@@H](C)CC[C@@H]3[C@@H](C)C[C@@H]2C=C(C)C [WF 333, Pseudopterosin A Pentyl ether]	58%	> 40 µM	62.2%	6.7 ± 1.0 mgs	
CCCCCCCCCCOc1c(C)c2c3c(c1O[C@@H]1OC[C@@H](O)[C@H](O)[C@H]1O)[C@@H](C)CC[C@@H]3[C@@H](C)C[C@@H]2C=C(C)C [WF 334, Pseudopterosin A Decanyl ether]	Inconclusive		60.7%	7.0 ± 0.9 mgs	IC50 [1]: Inconclusive
CCCCCCCCCCCCCCCCCCOc1c(C)c2c3c(c1O[C@@H]1OC[C@@H](O)[C@H](O)[C@H]1O)[C@@H](C)CC[C@@H]3[C@@H](C)C[C@@H]2C=C(C)C [WF 335, Pseudopterosin A Octadecanyl ether]	27%	> 30 µM	54.4%	8.0 ± 1.2 mgs	
CC(C)=C[C@H]1C[C@H](C)[C@H]2CC[C@H](C)c3c(O[C@@H]4OC[C@@H](O)[C@H](O)[C@H]4O)c(OCCCCO)c(C)c1c32 [WF 336, Pseudopterosin A Butanol ether]	73%	19 µM	69.9%	5.3 ± 0.9 mgs	
CC(C)=C[C@H]1C[C@H](C)[C@H]2CC[C@H](C)c3c(O[C@@H]4OC[C@@H](O)[C@H](O)[C@H]4O)c(OCC(N)=O)c(C)c1c32 [WF 337, Pseudopterosin A Acetamide ether]	74%	15 µM	52.6%	8.4 ± 1.4 mgs	
bis pseudopterosin A pentanyl diether [WF 338]	0%		6.7%	16.5 ± 1.2 mgs	inhibition of explant degradation (in words) ([1]; as can be seen from TABLE 2): inhibited explant degradation, except for WF 338; IC50 ([1]; read-out: IC50): > 30 µM; anti-inflammatory activity (in words) ([2]; mouse ear edema, comparison compound): little if any anti-inflammatory activity
B1					35S-GAG release ([3]; IL-1-α 0.4 ng/mL plus plasminogen 0.4 μM, four day assay): approximately 50%; GAG release ([3]; IL-1-α 1 ng/mL plus 0.5 μM plasminogen): greater than 90%; increase in degradation over control ([3]; IL-1-α 2.5 ng/mL, without plasminogen): two-fold increase; release of 35S-labeled GAG ([3]; IL-1-α 10 ng/mL, without plasminogen): ~35%; dose dependence of degradation (in words) ([3]; IL-1-α, without plasminogen): induces degradation in bovine articular cartilage explants in a dose-dependent manner
B2					degradation by plasminogen alone (in words) [3]: does not induce any degradation above control levels; degradation by plasminogen alone (in words) ([3]; listed as plasminogen): same results as media alone
